Experimental data as given in PubChem BioAssay (NCI).
“And” between values parts separate entries of the source, which are not always exact repeats. Equal values may be shown once.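 Cultured in 96-well plates, cells were exposed to test compound for 48 hours across five concentrations. Here, GI50 denotes the concentration required for 50% inhibition of growth. At the TGI there is no net growth.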

Key:
Experiment in all cases: inhibition of tumour cell growth, NCI panel, 48 h
[1] = test system: IGROV1 ovarian
[2] = test system: SK-MEL-2 melanoma
[3] = test system: M14 melanoma
[4] = test system: HCT-116 colon
[5] = test system: TK-10 renal
[6] = test system: OVCAR-4 ovarian
[7] = test system: SW-620 colon
[8] = test system: SNB-75 CNS
[9] = test system: OVCAR-5 ovarian
[10] = test system: CCRF-CEM leukemia

Structure (SMILES)	GI50 [1] [µM]	TGI [1]	GI50 [2] [µM]	TGI [2]	GI50 [3] [µM]	TGI [3] [µM]	GI50 [4] [µM]	TGI [4] [µM]	GI50 [5] [µM]	TGI [5]	GI50 [6]	TGI [6] [µM]	GI50 [7] [µM]	TGI [7] [µM]	GI50 [8] [µM]	TGI [8] [µM]	GI50 [9] [µM]	TGI [9] [µM]	GI50 [10] [µM]	TGI [10]
C1=C/COCc2cc(ccc2OCCN2CCCC2)Nc2nccc(n2)-c2ccc(o2)COC/1	0.626	6.57 µM	1.46	4 µM	1.56	9.09	0.757	10.6	2.42	12 µM	2.33 µM	10.4	2.36	11.7	1.25	2.75	0.716	3.8	2.06	7.2 µM
O=c1nc(-c2ccccc2)cc(CC(O)c2ccc(Cl)c(Cl)c2)[nH]1 (configuration not stated)	–	> 100 µM	–	65.3 µM	–	> 100	–	> 100	–	> 100 µM	–	> 100	–	> 100	–	> 100	–	82	–	> 100 µM
COC(=O)C1=C(CS(=O)c2ccc([N+](=O)[O-])cc2[N+](=O)[O-])C2C=CC1C2 (configuration not stated)	–	> 100 µM	–	> 100 µM	–	> 100	–	45.1	–	51.7 µM	–	67.1	–	28.6	–	76.6	–	> 100	–	34.6 µM
CCc1cccc(C)c1N1C(=O)C(=O)C(c2nc3ccccc3o2)C(=O)C1=O	–	> 100 µM	–	> 100 µM	–	> 100	–	> 100	–	> 100 µM	–	> 100	–	> 100	–	> 100	–	> 100	–	> 100 µM
N/C(=N\NS(=O)(=O)c1ccccc1)Oc1ccc(Br)cc1Br	–	> 100 µM	–	> 100 µM	–	> 100	–	> 100	–	> 100 µM	–	> 100	–	24.3	–	> 100	–	> 100	–	> 100 µM
CC1(c2cc3c(cc2Br)OCO3)SCCCS1	–	> 100 µM	–	88.3 µM	–	> 100	–	> 100	–	> 100 µM	–	> 100	–	> 100	–	> 100	–	> 100	–	> 100 µM
O=C(/C=C/c1ccc(C(F)(F)F)cc1)Nc1ccc(C=C2c3ccccc3C(=O)c3ccccc32)cc1	33.2	> 100 µM	4.11	30.6 µM	3.41	18.8	4	> 100	23.6	> 100 µM	5.26 µM	> 100	4.57	> 100	7.26	39.1	43.6	> 100	3.4	> 100 µM
CCOc1ccc(/C(C=O)=C(\Cl)c2ccc(OC)cc2)cc1	–	> 100 µM	–	> 100 µM	–	> 100	–	> 100	–	> 100 µM	–	> 100	–	> 100	–	> 100	–	> 100	–	> 100 µM
COC(=O)CCC12CCC(=O)C1[C@@H](C(=O)OC)C[C@H]2C(=O)OC (some centres not stated)	–	> 100 µM	–	> 100 µM	–	> 100	–	> 100	–	> 100 µM	–	> 100	–	> 100	–	> 100	–	> 100	–	> 100 µM
COc1ccc(C(=O)c2cc3c(N)c(C(=O)Nc4ccccc4)sc3nc2C)cc1	2.51	> 100 µM	4.22	> 100 µM	0.779	> 100	0.635	> 100	8.04	> 100 µM	16.1 µM	> 100	0.415	> 100	0.242	5.92	3.1	> 100	0.852	> 100 µM
Cc1ccc(Oc2ccccc2N)cc1	–	> 100 µM	–	> 100 µM	–	> 100	–	36	–	> 100 µM	–	> 100	–	> 100	–	60.6	–	> 100	–	> 100 µM
C#CCNC(=S)N/N=C(\C)c1ccccn1	0.0522	> 100 µM	6.2	> 100 µM	0.454	5.15	0.0329	> 38	3.07	> 100 µM	0.0519 µM	1.35	0.341	> 100	0.943	> 23.7	0.885	> 100	0.0677	> 100 µM
CCc1cccc(C)c1NC(=O)CCc1nnc2s/c(=C\c3cccc4ccccc34)c(=O)n12	–	> 100 µM	–	> 100 µM	–	> 100	–	> 100	–	> 100 µM	–	> 100	–	> 100	–	> 100	–	> 100	–	> 100 µM
CC[C@@]1(OC(=O)CN)C(=O)OCc2c1cc1n(c2=O)Cc2c-1nc1cc3c(cc1c2CCl)OCO3	0.234	15.1 µM	1.24	5.04 µM	0.0102	–	< 0.01	> 100	0.947	7.62 µM	0.381 µM	11.3	< 0.0196	32.6	< 0.0244	–	1.03	13	< 0.01	> 100 µM
CC(C)(O)/C=C/C(=O)[C@](C)(O)[C@H]1[C@H](O)C[C@@]2(C)[C@@H]3CC=C4[C@@H](C[C@H](O)C(=O)C4(C)C)[C@]3(C)C(=O)C[C@]12C	0.211	0.479 µM and 1.22 µM	0.0294	0.0829 µM and 0.131 µM	0.0563	5.94	0.164	–	–	0.473 µM and 0.495 µM	0.161 µM and 0.891 µM	–	0.104	9.68	0.0496	–	0.692	–	0.0462	0.62 µM and 3.04 µM
O=C1C2=C(C(=O)c3cnccc31)C1C=CC2CC1 (configuration not stated)	2.2	4.31 µM	1.89	3.52 µM	1.94	3.41	1.65	3.03	5.54	10.4 µM	0.316 µM	1.15	1.85	3.44	1.34	2.73	1.93	3.71	0.66	–
